From article PMC7699592, “Interaction between the Lentil Lipid Transfer Protein Lc-LTP2 and Its Novel Signal Ligand PI(4,5)P2” (Membranes, 2020)

Tests used:
Format in all cases: binding
[1] = target: T1, LTP from mugwort (mugwort LTP) (Artemisia vulgaris, UniProt C4MGG9); test: protein-lipid overlay on membrane lipid strips; conditions: lipid immobilised, 100 pM per spot; PBS; anti-Lc-LTP2 antibody detection
T1 construct: gene Art v 3; recombinant, overexpressed in Escherichia coli, purified; four disulfide bonds
T1 sequence (C4MGG9 24-114): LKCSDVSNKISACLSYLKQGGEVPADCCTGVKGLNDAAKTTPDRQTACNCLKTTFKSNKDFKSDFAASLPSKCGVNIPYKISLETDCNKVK

[2] = target: T2, LTP from ragweed (ragweed LTP) (Ambrosia artemisiifolia, UniProt O04004); test: protein-lipid overlay on membrane lipid strips; conditions: lipid immobilised, 100 pM per spot; PBS; anti-Lc-LTP2 antibody detection
T2 construct: recombinant, overexpressed in Escherichia coli, purified; four disulfide bonds
T2 sequence (O04004 26-118): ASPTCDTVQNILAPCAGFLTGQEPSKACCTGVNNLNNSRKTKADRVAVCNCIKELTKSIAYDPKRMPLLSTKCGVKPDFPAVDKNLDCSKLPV

[3] = target: T3, LTP from strawberry (strawberry LTP) (Fragaria x ananassa, UniProt Q8VX12); test: protein-lipid overlay on membrane lipid strips; conditions: lipid immobilised, […] per spot; PBS; anti-Lc-LTP2 antibody detection
T3 construct: gene lpt46; recombinant, overexpressed in Escherichia coli, purified; four disulfide bonds
T3 sequence (Q8VX12 27-117): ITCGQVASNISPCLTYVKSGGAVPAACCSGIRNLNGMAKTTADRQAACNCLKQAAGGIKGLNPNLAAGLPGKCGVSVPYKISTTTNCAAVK

Lc-LTP2 [4] = target: T4, Lc-LTP2 (Lens culinaris, UniProt A0AT29, Y105A); test: TNS fluorescent probe displacement; conditions: 4 uM LTP, 10 uM PI(4,5)P2, 3 uM TNS, pH 7.0, 25 °C
T4 construct: recombinant mature protein, overexpressed in Escherichia coli, purified; four disulfide bonds

[5] = target: T5, LTP from strawberry (strawberry LTP) (Fragaria x ananassa, UniProt Q8VX12); test: TNS fluorescent probe displacement; conditions: 4 uM LTP, 10 uM PI(4,5)P2, 3 uM TNS, pH 7.0, 25 °C
T5 construct: recombinant, overexpressed in Escherichia coli, purified; four disulfide bonds

[6] = target: T1, LTP from mugwort (mugwort LTP); test: TNS fluorescent probe displacement; conditions: 4 uM LTP, 10 uM PI(4,5)P2, 3 uM TNS, pH 7.0, 25 °C
Lc-LTP2 [7] = target: T6, Lc-LTP2 (Lens culinaris, UniProt A0AT29); test: TNS fluorescent probe displacement; conditions: 4 uM LTP, 10 uM PI(4,5)P2, 3 uM TNS, pH 7.0, 25 °C
T6 construct: recombinant mature protein, overexpressed in Escherichia coli, purified; four disulfide bonds
T6 sequence (A0AT29 26-118): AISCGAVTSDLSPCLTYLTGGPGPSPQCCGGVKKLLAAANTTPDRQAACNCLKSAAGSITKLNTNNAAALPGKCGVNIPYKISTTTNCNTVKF

Lc-LTP2 [8] = target: T7, Lc-LTP2 (Lens culinaris, UniProt A0AT29, R70A/Y105A); test: TNS fluorescent probe displacement; conditions: 4 uM LTP, 10 uM PI(4,5)P2, 3 uM TNS, pH 7.0, 25 °C
T7 construct: recombinant mature protein, overexpressed in Escherichia coli, purified; four disulfide bonds

[9] = target: T2, LTP from ragweed (ragweed LTP); test: TNS fluorescent probe displacement; conditions: 4 uM LTP, 10 uM PI(4,5)P2, 3 uM TNS, pH 7.0, 25 °C

T4 sequence (A0AT29 26-118 Y105A): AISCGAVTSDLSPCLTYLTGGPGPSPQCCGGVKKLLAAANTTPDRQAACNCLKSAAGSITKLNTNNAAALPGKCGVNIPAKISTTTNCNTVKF
T7 sequence (A0AT29 26-118 R70A/Y105A): as the sequence (A0AT29 26-118 Y105A) above, with R45A counted along it

Compound | protein-lipid overlay on membrane lipid strips [1] | protein-lipid overlay on membrane lipid strips [2] | protein-lipid overlay on membrane lipid strips [3] | % reduction of LTP-TNS fluorescence (Lc-LTP2 [4]) [%] | % reduction of LTP-TNS fluorescence [5] [%] | % reduction of LTP-TNS fluorescence [6] [%] | % reduction of LTP-TNS fluorescence (Lc-LTP2 [7]) [%] | % reduction of LTP-TNS fluorescence (Lc-LTP2 [8]) [%] | % reduction of LTP-TNS fluorescence [9] [%]
CCCCCCCCCCCCCCCC(=O)OC[C@H](COP(=O)(O)O[C@@H]1[C@H](O)[C@H](O)[C@@H](OP(=O)(O)O)[C@H](OP(=O)(O)O)[C@H]1O)OC(=O)CCCCCCCCCCCCCCC [PI(4,5)P2 diC16] | Protein-lipid overlay assays with other LTPs from the abovementioned plants led to the same results | Protein-lipid overlay assays with other LTPs from the abovementioned plants led to the same results | Protein-lipid overlay assays with other LTPs from the abovementioned plants led to the same results | – | – | – | – | – | –
PI(4,5)P2 | – | – | – | 8 | 14 | 11 | 21 | 16 | 9
